Experiments:
rats = details: oral; cited from earlier work
[1] = tested on: Female C57BL/6 mice immunosuppressed with cyclophosphamide; experiment: Chemoprotection studies: in vivo induction of immune cell proliferation or protection in cyclophosphamide-immunosuppressed mice; details: oral pre-treatment day -3, -2, -1, CY 200 mg/kg i.v. day 0, sacrifice day +5; for peripheral white blood cell count: FIG. 2; for spleen red cell count: FIG. 3
Description: Chemoprotection Studies: In vivo Induction of Immune Cell Proliferation or Protection By Medium-Chain Fatty Alcohol.
Female C57BL/6 mice, 6 to 8 weeks old, were immunosuppressed by treatment with 200 mg/kg of cyclophosphamide (CY) administered intravenously at day 0. To examine the immunoprotective effect of the medium-chain fatty alcohol, mice were pre-treated at day −3, −2 and −1 by oral administration of the compound. Mice were sacrificed at day +5 by cardiac puncture and cervical dislocation. After the sacrifice, tissues were crushed in PBS buffer and cells were counted on a hemacytometer.

SMILES | LD50 (rats) [g/kg body weight] | peripheral white blood cell count [1] | spleen red cell count [1] | bone marrow white cell count ([1]; FIG. 1)
CCCCCCCCO [octanol] | 3.2 | nonsignificant increase | significant increase | 
CCCCCCCCCCCCO [dodecanol] |  | nonsignificant increase | significant increase | 
CCCCCCCCCCO [decanol] | 4.7 | nonsignificant increase | significant increase | significant increase
